Assay results reported in publication PMC7312527 (International Journal of Molecular Sciences, 2020).
Several values for one entry are separate records, joined by “and”; a condition that tells them apart may be missing. Equal values may be shown once.

Legend:
AChE from electric eel = AChE from electric eel (Electrophorus electricus, UniProt O42275); assay: biochemical; details: for Selectivity for AChE: IC50 (BuChE)/IC50(AChE); for IC50: means ± SD of three independent experiments, read-out: EeAChE IC50 ± SD
Sequence of AChE from electric eel (O42275 24-633): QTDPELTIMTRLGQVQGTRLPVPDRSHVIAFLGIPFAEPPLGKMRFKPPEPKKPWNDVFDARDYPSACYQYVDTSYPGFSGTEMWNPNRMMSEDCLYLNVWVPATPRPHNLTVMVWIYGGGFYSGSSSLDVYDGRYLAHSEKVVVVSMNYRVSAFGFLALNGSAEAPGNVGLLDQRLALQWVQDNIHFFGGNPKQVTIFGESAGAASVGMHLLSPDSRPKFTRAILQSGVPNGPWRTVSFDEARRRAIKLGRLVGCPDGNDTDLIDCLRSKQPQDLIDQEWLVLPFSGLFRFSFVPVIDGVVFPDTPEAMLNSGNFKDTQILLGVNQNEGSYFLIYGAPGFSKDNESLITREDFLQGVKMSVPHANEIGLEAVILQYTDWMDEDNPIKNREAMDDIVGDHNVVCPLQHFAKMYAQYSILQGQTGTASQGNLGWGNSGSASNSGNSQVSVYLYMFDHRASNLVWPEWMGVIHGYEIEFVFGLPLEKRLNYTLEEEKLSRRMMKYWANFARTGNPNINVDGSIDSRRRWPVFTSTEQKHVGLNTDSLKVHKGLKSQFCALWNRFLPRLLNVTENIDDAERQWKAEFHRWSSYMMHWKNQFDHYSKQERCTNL

BuChE from equine serum = BuChE from equine serum (Equus caballus, UniProt P81908); assay: biochemical; details: for Selectivity for BuChE: IC50(AChE)/IC50(BuChE); for IC50: means ± SD of three independent experiments, read-out: EqBuChE IC50 ± SD
Sequence of BuChE from equine serum (P81908 whole entry): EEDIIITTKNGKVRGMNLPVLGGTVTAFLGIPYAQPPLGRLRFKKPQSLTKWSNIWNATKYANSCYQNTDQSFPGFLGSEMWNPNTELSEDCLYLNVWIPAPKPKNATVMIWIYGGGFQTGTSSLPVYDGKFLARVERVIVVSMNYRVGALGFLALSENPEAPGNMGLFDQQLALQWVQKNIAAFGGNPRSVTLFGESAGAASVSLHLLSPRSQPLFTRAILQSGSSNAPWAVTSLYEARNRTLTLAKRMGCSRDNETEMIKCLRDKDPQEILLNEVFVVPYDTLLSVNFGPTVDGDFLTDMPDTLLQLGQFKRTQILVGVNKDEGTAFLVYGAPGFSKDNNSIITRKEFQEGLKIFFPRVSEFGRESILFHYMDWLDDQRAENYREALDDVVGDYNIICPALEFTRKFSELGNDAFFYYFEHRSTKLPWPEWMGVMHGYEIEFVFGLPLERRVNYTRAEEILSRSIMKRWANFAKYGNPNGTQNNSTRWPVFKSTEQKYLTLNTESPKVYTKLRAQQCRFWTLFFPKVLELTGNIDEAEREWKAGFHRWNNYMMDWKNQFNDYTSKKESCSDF

[1] = Experimental Properties; cited from earlier work
SH-SY5Y cells [2] = assay: Neuroprotection against rotenone/oligomycin A, co-incubation (MTT); format: cell-based, human; details: R/O mixture
SH-SY5Y cells [3] = assay: Neuroprotection against rotenone/oligomycin A, pre-incubation (MTT); format: cell-based, human; details: R/O mixture, 0.001 µM
SH-SY5Y cells [4] = assay: Neuroprotection against oxidative stress induced by H2O2 (MTT); format: cell-based, human; details: H2O2 100 µM
in vitro = format: cell-based; details: human
Protocol: (§1) Human hepatic stellate cells (HSCs, Sciencell) were cultured in the Stellate Cell Medium (Sciencell) with 1% Stellate Cell Growth Supplement, 2% fetal bovine serum (FBS), and 1% penicillin/streptomycin solution (Sciencell). Cells were kept in the incubator (37 °C, 5% CO2). At the beginning of the experiment, cells were seeded in the 96-well plates at a density of 5 × 10^3 cells per well and incubated in the incubator for 24 h. After the incubation period, medium was removed and HSCs were exposed to 100 µL of the compound solutions over a range of concentrations (10–0.1 µM) or nothing but culture medium (blank control). Cells were further incubated for 24 h. At the end, medium was removed, cells were washed with PBS, and 50 µL of the MTT solution (0.75 mg/mL) was added to the cells. Plates were kept in the dark for 2 h at 37 °C. Finally, the MTT solution was removed and 100 µL of DMSO was added to each well. Plates with DMSO were kept at room temperature for 10 min. After this time, 5 µL of Sorensen Buffer was added to each well. Plates were swayed and the absorbance was measured at a wavelength of 570 nm by a microplate reader (Synergy H1, BioTek). The cell viability was expressed as a percentage of the control values (blank control).

[5] = tested on: Human hepatic stellate cells (HSCs); assay: in vitro; format: cell-based; details: HSCs, 24 h
Protocol: as §1

[6] = Experimental Properties; cited from earlier work; remark: listed apart in the source
hyaluronidase = target: T1, hyaluronidase (Bos taurus, UniProt Q2YDK3); assay: Hyaluronidase (HYAL) inhibition test (turbidimetry); format: biochemical
T1 sequence (Q2YDK3 36-553): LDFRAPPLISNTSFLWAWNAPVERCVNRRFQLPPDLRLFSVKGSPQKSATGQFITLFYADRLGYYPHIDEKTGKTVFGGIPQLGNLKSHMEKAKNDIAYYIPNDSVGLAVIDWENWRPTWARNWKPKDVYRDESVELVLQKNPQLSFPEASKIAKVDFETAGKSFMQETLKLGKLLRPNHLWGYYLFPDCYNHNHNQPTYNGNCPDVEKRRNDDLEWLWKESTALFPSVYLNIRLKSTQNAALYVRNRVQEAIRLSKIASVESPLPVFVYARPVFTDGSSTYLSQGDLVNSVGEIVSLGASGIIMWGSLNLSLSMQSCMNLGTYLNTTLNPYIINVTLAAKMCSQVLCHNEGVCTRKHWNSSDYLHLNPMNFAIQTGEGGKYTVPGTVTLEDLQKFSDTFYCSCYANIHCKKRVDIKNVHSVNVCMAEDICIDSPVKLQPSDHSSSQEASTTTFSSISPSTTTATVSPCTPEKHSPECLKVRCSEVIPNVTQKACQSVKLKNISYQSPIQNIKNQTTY
Protocol: The hyaluronidase inhibition assay was set by turbidimetry according to USP XXII-NF XVII, modified by Piwowarski, to the 96-wells plates test. Tested compound solutions were freshly prepared before the assay. The protocol started with the addition of 20 µL of the tested compound in monosodium phosphate buffer and 40 µL of hyaluronidase solution (22.5 U/mL, Sigma Aldrich) to each well. The plate was kept in the dark (10 min, 37 °C). In the next step, 40 µL of hyaluronic acid solution (0.03%, Sigma Aldrich) in monosodium phosphate buffer was added to the wells and the plate was incubated again (45 min, 37 °C). Finally, 300 µL of bovine serum albumin (0.1%, Serva) in sodium acetate buffer was added to the wells and the mixture was kept at room temperature for 10 min. The assay was carried out in triplicate. Changes in turbidity were measured by a microplate reader (BioTek, Winooski, VT, USA) at 600 nm. Heparin (WZF, Polfa, Warszawa, Poland) was the positive control. The inhibitory activity of the tested compound was calculated from the Equation (1):(1) % inhibition=100x1−AHA−AAN/AHA−AHYAL where AHA is the absorbance of solution without the enzyme (positive control), AHYAL is the absorbance of solution without the tested compound (negative control), and AAN is the absorbance of solution with the tested compound.

Row | Compound | Selectivity for AChE (AChE from electric eel) | IC50 (AChE from electric eel) | Selectivity for BuChE (BuChE from equine serum) | IC50 (BuChE from equine serum) [nM] | also measured
1 | O=C(NCCCCCCCCNc1c2c(nc3ccccc13)CCCC2)c1cc(Cl)cc(Cl)c1 [Compound 3g] | 0.634 | 958 ± 36 nM | 1.577 | 607 ± 20 | –
2 | CC(CN1c2ccccc2Sc2ccccc21)N(C)C.Cl (centres unmarked) [Prometazine HCl] | – | – | – | – | pKa [1]: 9.1 [52]
3 | Cl.O=C(NCCNc1c2c(nc3ccccc13)CCCC2)c1cc(Cl)cc(Cl)c1 [Compound 3a] | 0.203 | 690 ± 108 nM | 4.935 | 140 ± 12 | –
4 | O=C(NCCCCCNc1c2c(nc3ccccc13)CCCC2)c1cc(Cl)cc(Cl)c1 [Compound 3d] | – | > 12000 nM and 12400 nM | – | > 20000 | –
5 | O=C(NCCCCCCCNc1c2c(nc3ccccc13)CCCC2)c1cc(Cl)cc(Cl)c1 [Compound 3f] | 0.289 | 115 ± 12 nM | 3.457 | 33 ± 6 | –
6 | O=C(NCCCCCCNc1c2c(nc3ccccc13)CCCC2)c1cc(Cl)cc(Cl)c1 [Compound 3e] | – | > 20000 nM | – | > 20000 | –
7 | O=C(NCCCCCCCCCNc1c2c(nc3ccccc13)CCCC2)c1cc(Cl)cc(Cl)c1 [Compound 3h] | 2.914 | 111 ± 4 nM | 0.343 | 324 ± 47 | –
8 | O=C(NCCCNc1c2c(nc3ccccc13)CCCC2)c1cc(Cl)cc(Cl)c1 [Compound 3b] | 0.174 | 139 ± 5 nM | 5.756 | 24 ± 1 | –
9 | Cc1c(C)c2c(c(C)c1O)CCC(C)(C(=O)O)O2 (centres unmarked) [Trolox, reference compound] | – | – | – | – | neuroprotection (SH-SY5Y cells [2]; 0.001 µM): 5.60%; neuroprotection (SH-SY5Y cells [2]; 0.01 µM): 4.67%; neuroprotection (SH-SY5Y cells [3]): 2.15%; neuroprotection (SH-SY5Y cells [4]; compound 0.01 µM): 77.16%; neuroprotection (SH-SY5Y cells [4]; compound 0.1 µM): 91.22%; neuroprotection (SH-SY5Y cells [4]; compound 1 µM): 96.03%; neuroprotection (SH-SY5Y cells [4]; compound 10 µM): 95.05%
10 | Nc1c2c(nc3ccccc13)CCCC2 [Tacrine, reference compound] | – | – | – | – | viability at 24 h, 10 µM (in vitro): 90.3%; hepatotoxicity (MTT; cell viability as percentage of control) ([5]; 0.1 µM): 100.67% ± 1.03%; hepatotoxicity (MTT; cell viability as percentage of control) ([5]; 1 µM): 99.48% ± 0.74%
11 | CSc1ccc2c(c1)N(CCC1CCCCN1C)c1ccccc1S2.Cl (centres unmarked) [Thiorydazine HCl] | – | – | – | – | logP [6]: 5.9; pKa [1]: 9.5 [54]
12 | Heparin [positive control] | – | – | – | – | IC50 (hyaluronidase): 56400 ± 780 nM
